The NIST ThermoML archive (doi:10.1016/j.fluid.2016.07.034)
± gives the expanded uncertainty stated by the source.

Test: molar heat capacity at constant pressure
Settings: Liquid, Flow calorimetry

O [water]
molar heat capacity at constant pressure (304.24 K, 100 kPa): 75.43 ± 0.76 J/K/mol | molar heat capacity at constant pressure (304.28 K, 3030 kPa): 74.86 ± 0.76 J/K/mol | molar heat capacity at constant pressure (304.36 K, 11970 kPa): 74.97 ± 0.76 J/K/mol | molar heat capacity at constant pressure (304.37 K, 6180 kPa): 75.16 ± 0.76 J/K/mol | molar heat capacity at constant pressure (304.4 K, 9010 kPa): 74.98 ± 0.76 J/K/mol | molar heat capacity at constant pressure (323.09 K, 90 kPa): 75.69 ± 0.77 J/K/mol | molar heat capacity at constant pressure (323.13 K, 3180 kPa): 75.16 ± 0.76 J/K/mol | molar heat capacity at constant pressure (323.15 K, 6040 kPa): 74.94 ± 0.76 J/K/mol | molar heat capacity at constant pressure (323.17 K, 9000 kPa): 74.7 ± 0.75 J/K/mol | molar heat capacity at constant pressure (323.19 K, 11970 kPa): 74.58 ± 0.75 J/K/mol | molar heat capacity at constant pressure (371.11 K, 990 kPa): 76.21 ± 0.77 J/K/mol | molar heat capacity at constant pressure (371.19 K, 2980 kPa): 75.91 ± 0.77 J/K/mol | molar heat capacity at constant pressure (371.24 K, 5990 kPa): 75.65 ± 0.77 J/K/mol | molar heat capacity at constant pressure (371.27 K, 9030 kPa): 75.39 ± 0.76 J/K/mol | molar heat capacity at constant pressure (371.3 K, 12040 kPa): 75.11 ± 0.76 J/K/mol | molar heat capacity at constant pressure (424.19 K, 12070 kPa): 77.23 ± 0.78 J/K/mol | molar heat capacity at constant pressure (424.24 K, 1390 kPa): 77.92 ± 0.79 J/K/mol | molar heat capacity at constant pressure (424.29 K, 3030 kPa): 77.82 ± 0.79 J/K/mol | molar heat capacity at constant pressure (424.35 K, 6180 kPa): 76.99 ± 0.78 J/K/mol | molar heat capacity at constant pressure (424.43 K, 9080 kPa): 76.79 ± 0.78 J/K/mol | molar heat capacity at constant pressure (424.52 K, 15080 kPa): 76.51 ± 0.77 J/K/mol | molar heat capacity at constant pressure (473.34 K, 2710 kPa): 80.78 ± 0.82 J/K/mol | molar heat capacity at constant pressure (473.45 K, 6220 kPa): 80.48 ± 0.81 J/K/mol | molar heat capacity at constant pressure (473.51 K, 9230 kPa): 80.25 ± 0.81 J/K/mol | molar heat capacity at constant pressure (473.56 K, 12190 kPa): 80.08 ± 0.81 J/K/mol | molar heat capacity at constant pressure (473.61 K, 15070 kPa): 79.73 ± 0.81 J/K/mol | molar heat capacity at constant pressure (526 K, 6030 kPa): 87.65 ± 0.89 J/K/mol | molar heat capacity at constant pressure (526.12 K, 9260 kPa): 87.01 ± 0.88 J/K/mol | molar heat capacity at constant pressure (526.17 K, 12250 kPa): 86.6 ± 0.88 J/K/mol | molar heat capacity at constant pressure (526.23 K, 15120 kPa): 86.16 ± 0.87 J/K/mol | molar heat capacity at constant pressure (577.06 K, 9960 kPa): 104.34 ± 1.1 J/K/mol | molar heat capacity at constant pressure (577.11 K, 11800 kPa): 102.67 ± 1 J/K/mol | molar heat capacity at constant pressure (577.14 K, 13510 kPa): 102.15 ± 1 J/K/mol | molar heat capacity at constant pressure (577.18 K, 15110 kPa): 100.84 ± 1 J/K/mol
